US6737383B1, “Herbicidal oxadiazolidines” (priority 1999, dated 2004)

Columns and labels:
corn = assay: Test B pre/postemergence corn; assay type: in vivo, Zea mays
How it was run: (§1)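 Test chemicals in a non-phytotoxic solvent mixture with surfactant were sprayed preemergence onto planted seeds and postemergence onto plants 2 to 18 cm tall (1- to 4-leaf stage). After twelve to sixteen days in a greenhouse, injury was visually rated against untreated controls from 0 (no effect) to 10 (complete control).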

purple nutsedge = assay: Test B pre/postemergence purple nutsedge; assay type: in vivo, Cyperus rotundus; conditions: for Plant response rating, Nutsedge: scale of 0 to 10 where 0 is no effect and 10 is complete control
How it was run: as §1

velvetleaf = assay: Test B pre/postemergence velvetleaf; assay type: in vivo, Abutilon theophrasti; conditions: for Plant response rating, Velvetleaf: scale of 0 to 10 where 0 is no effect and 10 is complete control
How it was run: as §1

rape = assay: Test B pre/postemergence rape; assay type: in vivo, Brassica napus; conditions: for Plant response rating, Rape: scale of 0 to 10 where 0 is no effect and 10 is complete control
How it was run: as §1

sugar beet = assay: Test B pre/postemergence sugar beet; assay type: in vivo, Beta vulgaris; conditions: for Plant response rating, Sugarbeets: scale of 0 to 10 where 0 is no effect and 10 is complete control
How it was run: as §1

pigweed = assay: Test B pre/postemergence pigweed; assay type: in vivo, Amaranthus retroflexus; conditions: for Plant response rating, Redroot pigweed: scale of 0 to 10 where 0 is no effect and 10 is complete control
How it was run: as §1

soybean = assay: Test B pre/postemergence soybean; assay type: in vivo, Glycine max; conditions: for Plant response rating, Soybean: scale of 0 to 10 where 0 is no effect and 10 is complete control
How it was run: as §1

crabgrass = assay: Test B pre/postemergence crabgrass; assay type: in vivo, Digitaria sanguinalis
How it was run: as §1

bamyardgrass = assay: Test B flood test barnyardgrass; assay type: in vivo, Echinochloa crus-galli
How it was run: (§2)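 Each value is a visual injury score relative to controls, with 10 meaning complete control and 0 no effect. Evaluation took place twelve to sixteen days after the 2-leaf-stage plants were treated and kept in the greenhouse.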

giant foxtail = assay: Test B pre/postemergence giant foxtail; assay type: in vivo, Setaria faberii
How it was run: as §1

wild oat = assay: Test B pre/postemergence wild oat; assay type: in vivo, Avena fatua; conditions: for Plant response rating, Wild oats: scale of 0 to 10 where 0 is no effect and 10 is complete control
How it was run: as §1

wheat = assay: Test B pre/postemergence wheat; assay type: in vivo, Triticum aestivum; conditions: for Plant response rating, Wheat: scale of 0 to 10 where 0 is no effect and 10 is complete control
How it was run: as §1

morningglory = assay: Test B pre/postemergence morningglory; assay type: in vivo, Ipomoea hederacea; conditions: for Plant response rating, Morningglory: scale of 0 to 10 where 0 is no effect and 10 is complete control
How it was run: as §1

duck salad = assay: Test B flood test duck salad; assay type: in vivo, Heteranthera limosa
How it was run: as §2

cocklebur = assay: Test B pre/postemergence cocklebur; assay type: in vivo, Xanthium strumarium
How it was run: as §1

rice = assay: Test B flood test rice; assay type: in vivo, Oryza sativa
How it was run: as §2

[1] = Postemergence, Rate 250 g/ha, scale 0 to 10
[2] = Postemergence, Rate 500 g/ha, scale of 0 to 10 where 0 is no effect and 10 is complete control
[3] = Preemergence, Rate 62 g/ha, scale of 0 to 10 where 0 is no effect and 10 is complete control
[4] = Preemergence, Rate 125 g/ha, scale of 0 to 10 where 0 is no effect and 10 is complete control
[5] = Preemergence, Rate 250 g/ha, scale 0 to 10, 0 is no effect, 10 is complete control
[6] = Preemergence, Rate 500 g/ha, scale 0 to 10, 0 is no effect, 10 is complete control
[7] = Rate 62 g/ha, Postemergence, scale 0 to 10 (0 no effect, 10 complete control)
[8] = Rate 125 g/ha, Postemergence, scale 0 to 10, 0 is no effect, 10 is complete control
[9] = Rate 62 g/ha, flood test species, Pre-emergence, visual evaluation after twelve to sixteen days
[10] = Rate 125 g/ha, under heading Pre-emergence, flood test species, visual evaluation after twelve to sixteen days
[11] = Rate 250 g/ha, Pre-emergence (flood test species), scale 0 to 10, 0 is no effect, 10 is complete control
[12] = Rate 500 g/ha, Pre-emergence, flood test species, scale 0 to 10 (0 no effect, 10 complete control)

CC(C)N(C(=O)n1oc(=O)n(CCC[Si](C)(C)C)c1=O)c1ccc(F)cc1 [Compound 461]
Corn plant response rating (corn; [1]): 0 | Corn plant response rating (corn; [2]): 0 | Plant response rating, Corn (corn; [3]): 0 | Plant response rating, Corn (corn; [4]): 0 | Corn plant response rating (corn; [5]): 0 | Corn plant response rating (corn; [6]): 0 | Corn plant response rating (corn; [7]): 0 | Corn plant response rating (corn; [8]): 0 | Nutsedge plant response rating (purple nutsedge; [1]): 0 | Plant response rating, Nutsedge (purple nutsedge; Preemergence, Rate 62 g/ha): 0 | Plant response rating, Nutsedge (purple nutsedge; Preemergence, Rate 125 g/ha): 0 | Nutsedge plant response rating (purple nutsedge; [5]): 0 | Nutsedge plant response rating (purple nutsedge; [6]): 0 | Nutsedge plant response rating (purple nutsedge; [7]): 0 | Nutsedge plant response rating (purple nutsedge; [8]): 0 | Velvetleaf plant response rating (velvetleaf; [1]): 0 | Plant response rating, Velvetleaf (velvetleaf; Preemergence, Rate 62 g/ha): 0 | Plant response rating, Velvetleaf (velvetleaf; Preemergence, Rate 125 g/ha): 0 | Velvetleaf plant response rating (velvetleaf; [5]): 0 | Velvetleaf plant response rating (velvetleaf; [6]): 0 | Velvetleaf plant response rating (velvetleaf; [7]): 0 | Velvetleaf plant response rating (velvetleaf; [8]): 0 | Rape plant response rating (rape; [1]): 0 | Plant response rating, Rape (rape; Preemergence, Rate 62 g/ha): 0 | Plant response rating, Rape (rape; Preemergence, Rate 125 g/ha): 0 | Rape plant response rating (rape; [5]): 0 | Rape plant response rating (rape; [6]): 0 | Rape plant response rating (rape; [7]): 0 | Rape plant response rating (rape; [8]): 0 | Sugarbeets plant response rating (sugar beet; [1]): 0 | Plant response rating, Sugarbeets (sugar beet; Preemergence, Rate 62 g/ha): 0 | Plant response rating, Sugarbeets (sugar beet; Preemergence, Rate 125 g/ha): 0 | Sugarbeets plant response rating (sugar beet; [5]): 0 | Sugarbeets plant response rating (sugar beet; [6]): 0 | Sugarbeets plant response rating (sugar beet; [7]): 0 | Sugarbeets plant response rating (sugar beet; [8]): 0 | Redroot pigweed plant response rating (pigweed; [1]): 0 | Plant response rating, Redroot pigweed (pigweed; Preemergence, Rate 62 g/ha): 0 | Plant response rating, Redroot pigweed (pigweed; Preemergence, Rate 125 g/ha): 0 | Redroot pigweed plant response rating (pigweed; [5]): 0 | Redroot pigweed plant response rating (pigweed; [6]): 0 | Redroot pigweed plant response rating (pigweed; [7]): 0 | Redroot pigweed plant response rating (pigweed; [8]): 0 | Soybean plant response rating (soybean; [1]): 3 | Plant response rating, Soybean (soybean; Preemergence, Rate 62 g/ha): 0 | Plant response rating, Soybean (soybean; Preemergence, Rate 125 g/ha): 0 | Soybean plant response rating (soybean; [5]): 0 | Soybean plant response rating (soybean; [6]): 0 | Soybean plant response rating (soybean; [7]): 2 | Soybean plant response rating (soybean; [8]): 3 | Crabgrass plant response rating (crabgrass; [1]): 0 | Crabgrass plant response rating (crabgrass; [2]): 2 | Plant response rating, Crabgrass (crabgrass; [3]): 0 | Plant response rating, Crabgrass (crabgrass; [4]): 0 | Crabgrass plant response rating (crabgrass; [5]): 0 | Crabgrass plant response rating (crabgrass; [6]): 3 | Crabgrass plant response rating (crabgrass; [7]): 0 | Crabgrass plant response rating (crabgrass; [8]): 0 | Plant response rating, Barnyardgrass (0 to 10 scale, 0 is no effect, 10 is complete control) (bamyardgrass; [9]): 0 | Barnyardgrass plant response rating (0 to 10 scale, 0 is no effect, 10 is complete control) (bamyardgrass; [10]): 0 | Barnyardgrass plant response rating (bamyardgrass; [11]): 0 | Barnyardgrass plant response rating (bamyardgrass; [12]): 0 | Giant foxtail plant response rating (giant foxtail; [1]): 0 | Giant foxtail plant response rating (giant foxtail; [2]): 0 | Plant response rating, Giant foxtail (giant foxtail; [3]): 0 | Plant response rating, Giant foxtail (giant foxtail; [4]): 0 | Giant foxtail plant response rating (giant foxtail; [5]): 0 | Giant foxtail plant response rating (giant foxtail; [6]): 3 | Giant foxtail plant response rating (giant foxtail; [7]): 0 | Giant foxtail plant response rating (giant foxtail; [8]): 0 | Wild oats plant response rating (wild oat; [1]): 0 | Plant response rating, Wild oats (wild oat; Preemergence, Rate 62 g/ha): 0 | Plant response rating, Wild oats (wild oat; Preemergence, Rate 125 g/ha): 0 | Wild oats plant response rating (wild oat; [5]): 0 | Wild oats plant response rating (wild oat; [6]): 0 | Wild oats plant response rating (wild oat; [7]): 0 | Wild oats plant response rating (wild oat; [8]): 0 | Wheat plant response rating (wheat; [1]): 0 | Plant response rating, Wheat (wheat; Preemergence, Rate 62 g/ha): 0 | Plant response rating, Wheat (wheat; Preemergence, Rate 125 g/ha): 0 | Wheat plant response rating (wheat; [5]): 0 | Wheat plant response rating (wheat; [6]): 0 | Wheat plant response rating (wheat; [7]): 0 | Wheat plant response rating (wheat; [8]): 0 | Morningglory plant response rating (morningglory; [1]): 7 | Plant response rating, Morningglory (morningglory; Preemergence, Rate 62 g/ha): 0 | Plant response rating, Morningglory (morningglory; Preemergence, Rate 125 g/ha): 0 | Morningglory plant response rating (morningglory; [5]): 0 | Morningglory plant response rating (morningglory; [6]): 0 | Morningglory plant response rating (morningglory; [7]): 3 | Morningglory plant response rating (morningglory; [8]): 7 | Plant response rating, Ducksalad (0 to 10 scale, 0 is no effect, 10 is complete control) (duck salad; [9]): 0 | Ducksalad plant response rating (0 to 10 scale, 0 is no effect, 10 is complete control) (duck salad; [10]): 0 | Ducksalad plant response rating (duck salad; [11]): 0 | Ducksalad plant response rating (duck salad; [12]): 0 | Cocklebur plant response rating (cocklebur; [1]): 0 | Cocklebur plant response rating (cocklebur; [2]): 3 | Plant response rating, Cocklebur (cocklebur; [3]): 0 | Plant response rating, Cocklebur (cocklebur; [4]): 0 | Cocklebur plant response rating (cocklebur; [5]): 0 | Cocklebur plant response rating (cocklebur; [6]): 0 | Cocklebur plant response rating (cocklebur; [7]): 0 | Cocklebur plant response rating (cocklebur; [8]): 0 | Plant response rating, Rice (0 to 10 scale, 0 is no effect, 10 is complete control) (rice; [9]): 0 | Rice plant response rating (0 to 10 scale, 0 is no effect, 10 is complete control) (rice; [10]): 0 | Rice plant response rating (rice; [11]): 0 | Rice plant response rating (rice; [12]): 0
